Assays:
Assay type in all cases: in vivo
[1] = system: Magnaporthe grisea; Anamorph: Pyricularia oryzae; assay: whole plant or invertebrate; conditions: 24 h, read-out: Disease Control PYRIOR 1DP
Venturia inaequalis = assay: Apple Scab fungicidal activity (VENTIN); conditions: 100 ppm, 1 Day Protectant
Method: Technical grades of materials were dissolved in acetone, which were then mixed with nine volumes of water containing 110 ppm Triton X-100. The fungicide solutions were applied onto wheat seedlings using an automated booth sprayer to run-off. All sprayed plants were allowed to air dry prior to further handling. All fungicides were evaluated using the aforementioned method for their activity vs. all target diseases. Wheat leaf blotch and brown rust activity were also evaluated using track spray applications, in which case the fungicides were formulated as EC formulations, containing 0.1% Trycol 5941 in the spray solutions. Wheat plants (variety Yuma) were grown from seed in a greenhouse in 50% mineral soil/50% soil-less Metro mix until the first leaf was fully emerged, with 7-10 seedlings per pot. These plants were inoculated with an aqueous spore suspension of Septoria tritici either prior to or after fungicide treatments. After inoculation the plants were kept in 100% relative humidity (one day in a dark dew chamber followed by two to three days in a lighted dew chamber at 20° C.) to permit spores to germinate and infect the leaf. The plants were then transferred to a greenhouse set at 20° C. for disease to develop. When disease symptoms were fully expressed on the 1st leaves of untreated plants, infection levels were assessed on a scale of 0 to 100 percent disease severity. Percent disease control was calculated using the ratio of disease severity on treated plants relative to untreated plants. Evaluation of Fungicidal Activity: Apple Scab (Venturia inaequalis; Bayer code […]) Apple seedlings (variety McIntosh) were grown in soil-less Metro mix, with one plant per pot. Seedlings with two expanding young leaves at the top (older leaves at bottom of the plants were trimmed) were used in the test. Plants were inoculated with a spore suspension of Venturia inaequalis 24 hr after fungicide treatment and kept in a 22° C. dew chamber with 100% RH for 48 hr, and then moved to a greenhouse set at 20° C. for disease to develop. Fungicide formulation, application and disease assessment on the sprayed leaves followed the procedures as described in the Example A.

[2] = system: Blumeria graminis f.sp. hordei; assay: Barley Powdery Mildew fungicidal activity (ERYSGH); conditions: 24 h, 1 Day Protectant, read-out: Disease Control ERYSGH 1DP
Method: Technical grades of materials were dissolved in acetone, which were then mixed with nine volumes of water containing 110 ppm Triton X-100. The fungicide solutions were applied onto wheat seedlings using an automated booth sprayer to run-off. All sprayed plants were allowed to air dry prior to further handling. All fungicides were evaluated using the aforementioned method for their activity vs. all target diseases. Wheat leaf blotch and brown rust activity were also evaluated using track spray applications, in which case the fungicides were formulated as EC formulations, containing 0.1% Trycol 5941 in the spray solutions. Wheat plants (variety Yuma) were grown from seed in a greenhouse in 50% mineral soil/50% soil-less Metro mix until the first leaf was fully emerged, with 7-10 seedlings per pot. These plants were inoculated with an aqueous spore suspension of Septoria tritici either prior to or after fungicide treatments. After inoculation the plants were kept in 100% relative humidity (one day in a dark dew chamber followed by two to three days in a lighted dew chamber at 20° C.) to permit spores to germinate and infect the leaf. The plants were then transferred to a greenhouse set at 20° C. for disease to develop. When disease symptoms were fully expressed on the 1st leaves of untreated plants, infection levels were assessed on a scale of 0 to 100 percent disease severity. Percent disease control was calculated using the ratio of disease severity on treated plants relative to untreated plants. Evaluation of Fungicidal Activity: Barley Powdery Mildew (Blumeria graminis fsp. hordei; Synonym: Erysiphe graminis fsp. hordei; Bayer Code […]) Barley seedlings (variety Harrington) were propagated in soil-less Metro mix, with each pot having 8 to 12 plants, and used in the test when first leaf was fully emerged. Test plants were inoculated by dusting with infected stock plants 24 hr after fungicide treatments. After inoculation the plants were kept in a greenhouse set at 20° C. for disease to develop. Fungicide formulation, application and disease assessment on the sprayed leaves followed the procedures as described in the Example A.

Leptosphaeria nodorum = assay: Wheat Glume Blotch fungicidal activity (LEPTNO); conditions: 100 ppm, 1 Day Protectant
Method: Technical grades of materials were dissolved in acetone, which were then mixed with nine volumes of water containing 110 ppm Triton X-100. The fungicide solutions were applied onto wheat seedlings using an automated booth sprayer to run-off. All sprayed plants were allowed to air dry prior to further handling. All fungicides were evaluated using the aforementioned method for their activity vs. all target diseases. Wheat leaf blotch and brown rust activity were also evaluated using track spray applications, in which case the fungicides were formulated as EC formulations, containing 0.1% Trycol 5941 in the spray solutions. Wheat plants (variety Yuma) were grown from seed in a greenhouse in 50% mineral soil/50% soil-less Metro mix until the first leaf was fully emerged, with 7-10 seedlings per pot. These plants were inoculated with an aqueous spore suspension of Septoria tritici either prior to or after fungicide treatments. After inoculation the plants were kept in 100% relative humidity (one day in a dark dew chamber followed by two to three days in a lighted dew chamber at 20° C.) to permit spores to germinate and infect the leaf. The plants were then transferred to a greenhouse set at 20° C. for disease to develop. When disease symptoms were fully expressed on the 1st leaves of untreated plants, infection levels were assessed on a scale of 0 to 100 percent disease severity. Percent disease control was calculated using the ratio of disease severity on treated plants relative to untreated plants. Evaluation of Fungicidal Activity: Wheat Glume Blotch (Leptosphaeria nodorum; Bayer code […]) Wheat plants (variety Yuma) were grown from seed in a greenhouse in 50% mineral soil/50% soil-less Metro mix until the first leaf was fully emerged, with 7-10 seedlings per pot. These plants were inoculated with an aqueous spore suspension of Leptosphaeria nodorum 24 hr after fungicide treatments. After inoculation the plants were kept in 100% relative humidity (one day in a dark dew chamber followed by two days in a lighted dew chamber at 20° C.) to permit spores to germinate and infect the leaf. The plants were then transferred to a greenhouse set at 20° C. for disease to develop. Fungicide formulation, application and disease assessment followed the procedures as described in the Example A.

| Compound | pest or weed control at 100 ppm [1] | Disease Control VENTIN 1DP (Venturia inaequalis) | pest or weed control at 100 ppm [2] | Disease Control LEPTNO 1DP (Leptosphaeria nodorum) |
| --- | --- | --- | --- | --- |
| COc1ccnc(C(=O)N[C@H]2COC[C@H](Cc3ccc(Cl)cc3Cl)[C@@H](OC(=O)C(C)C)[C@H](C)OC2=O)c1OC(C)=O [Compound F73] | 80 to 100% | – | – | – |
| COc1ccnc(C(=O)N[C@H]2COC[C@H](Cc3ccc(C)cc3)[C@@H](OCC(C)C)[C@H](C)OC2=O)c1OC(C)=O [Compound F80] | 80 to 100% | B (More than 0-Less than 80) | 80 to 100% | A (80-100) |
| COc1ccnc(C(=O)N[C@H]2COC[C@H](CCc3ccccc3)[C@@H](OCC(C)C)[C@H](C)OC2=O)c1OCOC(C)=O [Compound F82] | 80 to 100% | – | – | – |
| COc1ccnc(C(=O)N[C@H]2COC[C@H](Cc3cccc4ccccc34)[C@@H](OC(=O)C(C)C)[C@H](C)OC2=O)c1OCOC(C)=O [Compound F83, (3S,6S,7R,8S)-3-(3-(acetoxymethoxy)-4-methoxypicolin-amido)-6-methyl-8-(naphthalen-1-ylmethyl)-4-oxo-1,5-dioxonan-7-yl isobutyrate] | 80 to 100% | A (80-100) | 80 to 100% | A (80-100) |
| COc1ccnc(C(=O)N[C@H]2COC[C@H](Cc3ccc(F)cc3)[C@@H](OCC(C)C)[C@H](C)OC2=O)c1OCOC(C)=O [Compound F96] | 80 to 100% | – | 80 to 100% | A (80-100) |
| COc1ccnc(C(=O)N[C@H]2COC[C@H](CC(F)(F)F)[C@@H](OC3CCCC3)[C@H](C)OC2=O)c1OCOC(C)=O [Compound F105] | 80 to 100% | – | – | – |
| COc1ccnc(C(=O)N[C@H]2COC[C@H](CCC(C)C)[C@@H](OCCCC(F)(F)F)[C@H](C)OC2=O)c1OCOC(C)=O [Compound F107] | 80 to 100% | – | 0 to 80% | – |
| COc1ccnc(C(=O)N[C@H]2COC[C@H](CCC(C)C)[C@@H](OC(=O)C3CC3)[C@H](C)OC2=O)c1OCOC(C)=O [Compound F108] | 80 to 100% | – | 80 to 100% | – |
| COc1ccnc(C(=O)N[C@H]2COC[C@H](Cc3ccc(Cl)cc3Cl)[C@@H](OC(=O)C(C)C)[C@H](C)OC2=O)c1OCOC(C)=O [Compound F110] | 80 to 100% | – | – | – |
| COc1ccnc(C(=O)N[C@H]2COC[C@H](CC3CCCC3)[C@@H](OC(=O)C(C)C)[C@H](C)OC2=O)c1OCOC(C)=O [Compound F114] | 80 to 100% | A (80-100) | 80 to 100% | – |
| COc1ccnc(C(=O)N[C@H]2COC[C@H](Cc3ccc(C)cc3)[C@@H](OCC(C)C)[C@H](C)OC2=O)c1OCOC(C)=O [Compound F117] | 80 to 100% | A (80-100) | 80 to 100% | A (80-100) |
| CCCCCO[C@@H]1[C@@H](Cc2ccc(Cl)cc2Cl)COC[C@H](NC(=O)c2nccc(OC)c2OCOC(=O)COCC)C(=O)O[C@H]1C [Compound F122] | – | A (80-100) | 80 to 100% | A (80-100) |
| CCCCCO[C@@H]1[C@@H](Cc2ccc(Cl)cc2Cl)COC[C@H](NC(=O)c2nccc(OC)c2OC(=O)CCOC)C(=O)O[C@H]1C [Compound F123] | – | B (More than 0-Less than 80) | 80 to 100% | A (80-100) |

Reference: patent publication US9179674B2, “Macrocyclic picolinamide compounds with fungicidal activity” (DOW AGROSCIENCES LLC, priority 2013, dated 2015)
